# Laboratory results reported in US20180200257A1, “METHODS FOR THE TREATMENT OF INFLAMMATORY DISORDERS” (Galapagos NV, priority 2015, published 2018).
# System: subjects with moderately to severely active RA who have an inadequate response to methotrexate (MTX)
# Test: Study 2 (monotherapy) - Creatinine levels
# Type: in vivo, human
# From the text: Randomized, double-blind, placebo-controlled, multicenter, phase IIb dose finding study of Compound 1 (dosed as a [Compound 1:HCl:3H2O]) administered for 24 weeks as monotherapy to subjects with moderately to severely active rheumatoid arthritis who have an inadequate response to methotrexate alone
# Double-blind, placebo-controlled, monotherapy study in subjects with moderately to severely active RA who have an inadequate response to methotrexate (MTX) (oral or parenteral).
# 280 subjects randomized to one of 3 doses of Compound 1 (dosed as a [Compound 1:HCl:3H2O]) or to placebo, given once daily (q.d.).
# Twelve weeks of treatment with Compound 1 (dosed as a [Compound 1:HCl:3H2O]) at 50 mg, 100 mg, or 200 mg q.d.; or placebo. At Week 12, all subjects on placebo and the subjects on the 50 mg dose who have not achieved 20% improvement in swollen joint count (SJC66) and tender joint count (TJC68) will be assigned to 100 mg q.d. in a blinded fashion and will continue treatment until Week 24. Subjects in the other groups will maintain their randomized treatment until Week 24.
# Creatinine levels determination is available at Quest Diagnostics, Clinical Trials, Quest House, 125-135 Staines Road, Hounslow, Middlesex, TW3 3JB, United Kingdom under Catalogue n# 82565. For Study 3, the data are obtained at BARC Europe, 3B,Industrie Park, Zwijnaarde, B-9052 Ghent, Belgium.
# The Enzymatic method is based on the determination of sarcosine after conversion of creatinine with the aid of creatininase, creatinase, and sarcosine oxidase. The liberated hydrogen peroxide reacts with 4-aminophenazone and HTIB to form a quinone imine chromogen. The reaction is catalyzed by peroxidase. The color intensity is directly proportional to concentration of creatinine present and can be measured photometrically.
# Subjects in the other groups maintained their randomized treatment until Week 24.
# [1] = 50 mg q.d. non responders switching to 100 mg q.d. at week 12 (N = 15), week 0
# [2] = 50 mg q.d. non responders switching to 100 mg q.d. at week 12 (N = 15), week 1
# [3] = 50 mg q.d. non responders switching to 100 mg q.d. at week 12 (N = 15), week 2
# [4] = 50 mg q.d. non responders switching to 100 mg q.d. at week 12 (N = 15), week 4
# [5] = 50 mg q.d. non responders switching to 100 mg q.d. at week 12 (N = 15), week 8
# [6] = 50 mg q.d. non responders switching to 100 mg q.d. at week 12 (N = 15), week 12
# [7] = 50 mg q.d. non responders switching to 100 mg q.d. at week 12 (N = 15), week 16
# [8] = 50 mg q.d. non responders switching to 100 mg q.d. at week 12 (N = 15), week 20
# [9] = 50 mg q.d. non responders switching to 100 mg q.d. at week 12 (N = 15), week 24
# [10] = 50 mg q.d. responders (N = 57), week 0
# [11] = 50 mg q.d. responders (N = 57), week 1
# [12] = 50 mg q.d. responders (N = 57), week 2
# [13] = 50 mg q.d. responders (N = 57), week 4
# [14] = 50 mg q.d. responders (N = 57), week 8
# [15] = 50 mg q.d. responders (N = 57), week 12
# [16] = 50 mg q.d. responders (N = 57), week 16
# [17] = 50 mg q.d. responders (N = 57), week 20
# [18] = 50 mg q.d. responders (N = 57), week 24
# [19] = 100 mg q.d. (N = 70), 24 weeks results, week 0
# [20] = 100 mg q.d. (N = 70), 24 weeks results, week 1
# [21] = 100 mg q.d. (N = 70), 24 weeks results, week 2
# [22] = 100 mg q.d. (N = 70), 24 weeks results, week 4
# [23] = 100 mg q.d. (N = 70), 24 weeks results, week 8
# [24] = 100 mg q.d. (N = 70), 24 weeks results, week 12
# [25] = 100 mg q.d. (N = 70), 24 weeks results, week 16
# [26] = 100 mg q.d. (N = 70), 24 weeks results, week 20
# [27] = 100 mg q.d. (N = 70), 24 weeks results, week 24
# [28] = 200 mg q.d. (N = 69), 24 weeks results, week 0
# [29] = 200 mg q.d. (N = 69), 24 weeks results, week 1
# [30] = 200 mg q.d. (N = 69), 24 weeks results, week 2
# [31] = 200 mg q.d. (N = 69), 24 weeks results, week 4
# [32] = 200 mg q.d. (N = 69), 24 weeks results, week 8
# [33] = 200 mg q.d. (N = 69), 24 weeks results, week 12
# [34] = 200 mg q.d. (N = 69), 24 weeks results, week 16
# [35] = 200 mg q.d. (N = 69), 24 weeks results, week 20
# [36] = 200 mg q.d. (N = 69), 24 weeks results, week 24
# [37] = placebo switching to 100 mg q.d. at week 12 (N = 72), week 16
# [38] = placebo switching to 100 mg q.d. at week 12 (N = 72), week 20
# [39] = placebo switching to 100 mg q.d. at week 12 (N = 72), week 24
compound,measurement,setting,value
"O=C(Nc1nc2cccc(-c3ccc(CN4CCS(=O)(=O)CC4)cc3)n2n1)C1CC1 [Compound 1, cyclopropanecarboxylic acid {5-[4-(1,1-dioxo-thiomorpholin-4-ylmethyl)-phenyl]-[1,2,4]triazolo[1,5-a]pyridin-2-yl}-amide]",Creatinine Mean CFB,"50 mg q.d. (N = 72), week 0",0.00 µmol/L
same,Creatinine Mean percentage CFB,"50 mg q.d. (N = 72), week 0",0.00%
same,Creatinine Mean CFB,"50 mg q.d. (N = 72), week 1",0.42 µmol/L
same,Creatinine Mean percentage CFB,"50 mg q.d. (N = 72), week 1",1.10%
same,Creatinine Mean CFB,"50 mg q.d. (N = 72), week 2",1.25 µmol/L
same,Creatinine Mean percentage CFB,"50 mg q.d. (N = 72), week 2",2.59%
same,Creatinine Mean CFB,"50 mg q.d. (N = 72), week 4",1.32 µmol/L
same,Creatinine Mean percentage CFB,"50 mg q.d. (N = 72), week 4",3.01%
same,Creatinine Mean CFB,"50 mg q.d. (N = 72), week 8",2.20 µmol/L
same,Creatinine Mean percentage CFB,"50 mg q.d. (N = 72), week 8",4.34%
same,Creatinine Mean CFB,"50 mg q.d. (N = 72), week 12",3.16 µmol/L
same,Creatinine Mean percentage CFB,"50 mg q.d. (N = 72), week 12",6.02%
same,Creatinine Mean CFB,[1],0.0 µmol/L
same,Creatinine Mean percentage CFB,[1],0.00%
same,Creatinine Mean CFB,[2],1.1 µmol/L
same,Creatinine Mean percentage CFB,[2],2.03%
same,Creatinine Mean CFB,[3],2.0 µmol/L
same,Creatinine Mean percentage CFB,[3],3.77%
same,Creatinine Mean CFB,[4],0.6 µmol/L
same,Creatinine Mean percentage CFB,[4],1.58%
same,Creatinine Mean CFB,[5],6.2 µmol/L
same,Creatinine Mean percentage CFB,[5],10.36%
same,Creatinine Mean CFB,[6],0.0 µmol/L
same,Creatinine Mean percentage CFB,[6],0.74%
same,Creatinine Mean CFB,[7],5.9 µmol/L
same,Creatinine Mean percentage CFB,[7],11.14%
same,Creatinine Mean CFB,[8],4.5 µmol/L
same,Creatinine Mean percentage CFB,[8],8.07%
same,Creatinine Mean CFB,[9],5.2 µmol/L
same,Creatinine Mean percentage CFB,[9],9.28%
same,Creatinine Mean CFB,[10],0.0 µmol/L
same,Creatinine Mean percentage CFB,[10],0.00%
same,Creatinine Mean CFB,[11],0.2 µmol/L
same,Creatinine Mean percentage CFB,[11],0.86%
same,Creatinine Mean CFB,[12],1.0 µmol/L
same,Creatinine Mean percentage CFB,[12],2.27%
same,Creatinine Mean CFB,[13],1.5 µmol/L
same,Creatinine Mean percentage CFB,[13],3.40%
same,Creatinine Mean CFB,[14],1.1 µmol/L
same,Creatinine Mean percentage CFB,[14],2.67%
same,Creatinine Mean CFB,[15],4.0 µmol/L
same,Creatinine Mean percentage CFB,[15],7.51%
same,Creatinine Mean CFB,[16],1.9 µmol/L
same,Creatinine Mean percentage CFB,[16],3.91%
same,Creatinine Mean CFB,[17],3.6 µmol/L
same,Creatinine Mean percentage CFB,[17],7.19%
same,Creatinine Mean CFB,[18],1.6 µmol/L
same,Creatinine Mean percentage CFB,[18],3.16%
same,Creatinine Mean CFB,[19],0.0 µmol/L
same,Creatinine Mean percentage CFB,[19],0.00%
same,Creatinine Mean CFB,[20],1.2 µmol/L
same,Creatinine Mean percentage CFB,[20],3.00%
same,Creatinine Mean CFB,[21],1.5 µmol/L
same,Creatinine Mean percentage CFB,[21],3.21%
same,Creatinine Mean CFB,[22],1.1 µmol/L
same,Creatinine Mean percentage CFB,[22],3.23%
same,Creatinine Mean CFB,[23],3.2 µmol/L
same,Creatinine Mean percentage CFB,[23],5.79%
same,Creatinine Mean CFB,[24],1.7 µmol/L
same,Creatinine Mean percentage CFB,[24],3.96%
same,Creatinine Mean CFB,[25],2.9 µmol/L
same,Creatinine Mean percentage CFB,[25],6.44%
same,Creatinine Mean CFB,[26],2.3 µmol/L
same,Creatinine Mean percentage CFB,[26],4.63%
same,Creatinine Mean CFB,[27],2.0 µmol/L
same,Creatinine Mean percentage CFB,[27],4.17%
same,Creatinine Mean CFB,"100 mg q.d. (N = 70), week 0",0.00 µmol/L
same,Creatinine Mean percentage CFB,"100 mg q.d. (N = 70), week 0",0.00%
same,Creatinine Mean CFB,"100 mg q.d. (N = 70), week 1",1.19 µmol/L
same,Creatinine Mean percentage CFB,"100 mg q.d. (N = 70), week 1",3.00%
same,Creatinine Mean CFB,"100 mg q.d. (N = 70), week 2",1.48 µmol/L
same,Creatinine Mean percentage CFB,"100 mg q.d. (N = 70), week 2",3.21%
same,Creatinine Mean CFB,"100 mg q.d. (N = 70), week 4",1.10 µmol/L
same,Creatinine Mean percentage CFB,"100 mg q.d. (N = 70), week 4",3.23%
same,Creatinine Mean CFB,"100 mg q.d. (N = 70), week 8",3.19 µmol/L
same,Creatinine Mean percentage CFB,"100 mg q.d. (N = 70), week 8",5.79%
same,Creatinine Mean CFB,"100 mg q.d. (N = 70), week 12",1.75 µmol/L
same,Creatinine Mean percentage CFB,"100 mg q.d. (N = 70), week 12",3.96%
same,Creatinine Mean CFB,[28],0.0 µmol/L
same,Creatinine Mean percentage CFB,[28],0.00%
same,Creatinine Mean CFB,[29],4.7 µmol/L
same,Creatinine Mean percentage CFB,[29],8.07%
same,Creatinine Mean CFB,[30],5.0 µmol/L
same,Creatinine Mean percentage CFB,[30],8.56%
same,Creatinine Mean CFB,[31],4.3 µmol/L
same,Creatinine Mean percentage CFB,[31],7.37%
same,Creatinine Mean CFB,[32],4.8 µmol/L
same,Creatinine Mean percentage CFB,[32],8.70%
same,Creatinine Mean CFB,[33],3.8 µmol/L
same,Creatinine Mean percentage CFB,[33],7.96%
same,Creatinine Mean CFB,[34],5.3 µmol/L
same,Creatinine Mean percentage CFB,[34],9.81%
same,Creatinine Mean CFB,[35],6.6 µmol/L
same,Creatinine Mean percentage CFB,[35],13.11%
same,Creatinine Mean CFB,[36],3.5 µmol/L
same,Creatinine Mean percentage CFB,[36],8.41%
same,Creatinine Mean CFB,"200 mg q.d. (N = 69), week 0",0.00 µmol/L
same,Creatinine Mean percentage CFB,"200 mg q.d. (N = 69), week 0",0.00%
same,Creatinine Mean CFB,"200 mg q.d. (N = 69), week 1",4.68 µmol/L
same,Creatinine Mean percentage CFB,"200 mg q.d. (N = 69), week 1",8.07%
same,Creatinine Mean CFB,"200 mg q.d. (N = 69), week 2",4.99 µmol/L
same,Creatinine Mean percentage CFB,"200 mg q.d. (N = 69), week 2",8.56%
same,Creatinine Mean CFB,"200 mg q.d. (N = 69), week 4",4.28 µmol/L
same,Creatinine Mean percentage CFB,"200 mg q.d. (N = 69), week 4",7.37%
same,Creatinine Mean CFB,"200 mg q.d. (N = 69), week 8",4.82 µmol/L
same,Creatinine Mean percentage CFB,"200 mg q.d. (N = 69), week 8",8.70%
same,Creatinine Mean CFB,"200 mg q.d. (N = 69), week 12",3.80 µmol/L
same,Creatinine Mean percentage CFB,"200 mg q.d. (N = 69), week 12",7.96%
same,Creatinine Mean CFB,[37],1.9 µmol/L
same,Creatinine Mean percentage CFB,[37],3.61%
same,Creatinine Mean CFB,[38],2.7 µmol/L
same,Creatinine Mean percentage CFB,[38],5.14%
same,Creatinine Mean CFB,[39],4.6 µmol/L
same,Creatinine Mean percentage CFB,[39],8.41%
